From ChEMBL document CHEMBL1139991, “[1,3]Diazaheterofused isoindolol derivatives displaying anxiolytic-like effects on mice” (2007)

How the values were obtained:
Mus musculus [1] = assay: Anxiolytic effect in Albino ICR mouse assessed as number of entries in open arms of elevated plus-maze test at 15 mg/kg, ip; format: functional; conditions: route intraperitoneal
Mus musculus [2] = assay: Anxiolytic effect in Albino ICR mouse assessed as time spent on open arms of elevated plus-maze test at 15 mg/ kg, ip; format: functional; conditions: route intraperitoneal

Row | SMILES | Activity (Mus musculus [1]) [%] | Activity (Mus musculus [2]) [%]
1 | COc1cc(CC2(O)c3ccccc3C3=NCCN32)cc(OC)c1OC (configuration not stated) | -16 | -7.9
2 | COc1cc(CC2(O)c3ccccc3C3=NCCCN32)cc(OC)c1OC (configuration not stated) | 46.8 | 44.2
3 | OC1(Cc2ccc(F)cc2)c2ccccc2C2=NCCCCN21 (configuration not stated) | 36.3 | 33.5
4 | OC1(Cc2ccc(Cl)cc2)c2ccccc2C2=NCCCN21 (configuration not stated) | 47.4 | 62.6
5 | COc1ccc(CC2(O)c3ccccc3C3=NCCCN32)cc1 (configuration not stated) | 60.2 | 51.8
6 | OC1(Cc2ccc3c(c2)OCO3)c2ccccc2C2=NCCCN21 (configuration not stated) | 45.9 | 48.7
7 | O=[N+]([O-])c1ccc(CC2(O)c3ccccc3C3=NCCCN32)cc1 (configuration not stated) | 44.2 | 59
8 | CS(=O)(=O)c1ccc(CC2(O)c3ccccc3C3=NCCCN32)cc1 (configuration not stated) | -7.3 | 13.9
9 | OC1(Cc2ccc(Cl)cc2)c2ccccc2C2=NCCN21 (configuration not stated) | 41.9 | 62.6
10 | C[S+]([O-])c1ccc(CC2(O)c3ccccc3C3=NCCN32)cc1 (configuration not stated) | 25.3 | 44
11 | OC1(Cc2ccc(F)cc2)c2ccccc2C2=NCCN21 (configuration not stated) | 5.5 | 22.9
12 | CS(=O)(=O)c1ccc(CC2(O)c3ccccc3C3=NCCN32)cc1 (configuration not stated) | 27.3 | 44
13 | C[S+]([O-])c1ccc(CC2(O)c3ccccc3C3=NCCCN32)cc1 (configuration not stated) | 27.6 | 16.3
14 | OC1(Cc2ccc(Cl)cc2)c2ccccc2C2=NCCCCN21 (configuration not stated) | 41 | 42.7
15 | COc1ccc(CC2(O)c3ccccc3C3=NCCN32)cc1 (configuration not stated) | 34.6 | 48.9
16 | CSc1ccc(CC2(O)c3ccccc3C3=NCCCN32)cc1 (configuration not stated) | 66 | 73.8
17 | OC1(Cc2ccc(F)cc2)c2ccccc2C2=NCCCN21 (configuration not stated) | 24.7 | 44.7
18 | CSc1ccc(CC2(O)c3ccccc3C3=NCCN32)cc1 (configuration not stated) | 36.3 | 47.8
19 | OC1(Cc2ccc3c(c2)OCO3)c2ccccc2C2=NCCN21 (configuration not stated) | 44.8 | 51.3
20 | COc1ccc(CC2(O)c3ccccc3C3=NCCCCN32)cc1 (configuration not stated) | -24.4 | -9
21 | O=[N+]([O-])c1ccc(CC2(O)c3ccccc3C3=NCCN32)cc1 (configuration not stated) | 33.1 | 36.1
